One assay concerns influenza A/WSN. Kind of assay: Plaque reduction in MDCK cells, influenza A/WSN. Conditions: 48 h, read-out: IC50, […], A/WSN.
Assay [1] concerns the target influenza A/WSN virus transcriptase (Influenza A virus, UniProt P03427+P03430+P15659). Kind of assay: biochemical. The note with it: read-out: IC50, concentration required to achieve 50% inhibition of influenza A/WSN virus transcriptase activity.
A further assay has as its system influenza A/Victoria. Kind of assay: Plaque reduction in MDCK cells, influenza A/Victoria. The note with it: 48 h, read-out: IC50, […], A/Victoria.

Method for influenza A/Victoria: Compounds were evaluated for antiviral activity against influenza A/WSN by plaque reduction in Madin Darby canine kidney (MDCK) cells. Duplicate monolayers of MDCK cells in 6 well plates were washed free of protein-containing media, infected with 50-100 plaque-forming units of virus (0.4 ml volume), and incubated at 37° C. for 60 min. After aspiration of the virus inoculum, a 0.6% agarose overlay (3 ml) containing Eagle minimal essential media, trypsin (8 μg/ml), and the appropriate drug dilution (final concentration of 1% DMSO) was added to the cell monolayer. Plates were incubated at 37° C. in a humidified atmosphere of 5% CO2 in air. After 48 h, monolayers were fixed with glutaraldehyde, stained with 0.1% crystal violet and the plaques were counted. The percentage of plaque inhibition relative to the infected control (no drug) plates were calculated for each drug concentration and the 50% inhibitory concentration (IC50) was determined.

In the case of `CC(=O)C1=NN(c2ccc(C(=O)O)cc2C)C(=O)C1=C1C(=O)N(c2ccc(C(=O)O)cc2C)N=C1C(C)=O` [Example 4, 3,3'-Bis[3-Methyl-4-(2-hydroxy-4-acetylpyrazolyl)-benzoic Acid]], the IC50 with influenza A/WSN came to 50000 nM; in assay [1], 200 nM; in the assay with influenza A/Victoria it was 25000 nM.

On to `COc1cc(C(=O)O)ccc1N1N=C(C(C)=O)C(=C2C(=O)N(c3ccc(C(=O)O)cc3OC)N=C2C(C)=O)C1=O` [Example 5], for which the IC50 in assay [1] worked out at 1200 nM. Still for that read-out and setting: with `CC(=O)C1=NN(c2ccc(C(=O)O)c(Cl)c2)C(=O)C1=C1C(=O)N(c2ccc(C(=O)O)c(Cl)c2)N=C1C(C)=O` [Example 6] the figure was 800 nM. Take `CC(=O)C1=NN(c2ccc(C(=O)O)cc2)C(=O)C1=C1C(=O)N(c2ccc(C(=O)O)cc2)N=C1C(C)=O` [Example 7]: the IC50 in the assay with influenza A/WSN worked out at 50000 nM; in assay [1] it was 500 nM; with influenza A/Victoria, 30000 nM.

With `CC(=O)C1=NN(c2cccc(C(=O)O)c2)C(=O)C1=C1C(=O)N(c2cccc(C(=O)O)c2)N=C1C(C)=O` [Example 8], the IC50 in assay [1] was 350 nM. Consider `CC(=O)C1=NN(c2ccc(Cl)c(C(=O)O)c2)C(=O)C1=C1C(=O)N(c2ccc(Cl)c(C(=O)O)c2)N=C1C(C)=O` [Example 9], for which the IC50 in assay [1] came to 250 nM. With `CC(=O)C1=NN(c2cc(C(=O)O)ccc2C)C(=O)C1=C1C(=O)N(c2cc(C(=O)O)ccc2C)N=C1C(C)=O` [Example 10], the IC50 in assay [1] is 350 nM.

Source of the values: US5684024A, “Pyrazole dimers compositions and methods for treating influenza” (priority 1996, dated 1997).
